These results are taken from US9018395B2, “Pyrazolopyridine and pyrazolopyrimidine derivatives as melanocortin-4 receptor modulators” (Université de Montréal, priority 2011, dated 2015).

T1 sequence (P32245 whole entry): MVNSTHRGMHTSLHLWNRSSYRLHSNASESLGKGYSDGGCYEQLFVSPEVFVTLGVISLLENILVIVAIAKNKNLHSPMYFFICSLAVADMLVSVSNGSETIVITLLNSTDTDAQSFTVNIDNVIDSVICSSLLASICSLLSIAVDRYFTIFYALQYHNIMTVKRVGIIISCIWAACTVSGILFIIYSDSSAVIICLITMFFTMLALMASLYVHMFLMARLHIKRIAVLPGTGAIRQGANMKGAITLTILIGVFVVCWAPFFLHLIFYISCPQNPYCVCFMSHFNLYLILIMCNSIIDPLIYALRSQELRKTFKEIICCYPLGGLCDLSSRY

The test concerns the target T1, wild-type human melanocortin 4 receptor (WT-hMC4R) (Homo sapiens, UniProt P32245).
T1 construct: expressed in transfected cells; cDNA from UMR cDNA resource center
Put plainly: Cyclic AMP assay (HTRF), antagonist competition against NDP-α-MSH. The test is classed as cell-based. The note with it: HEK293T cells expressing double-tagged WT-hMC4R; cAMP accumulation; 1 hour compound then 4 nM NDP-α-MSH 30 min. Here is the method: Intracellular cyclic 3′-5′ adenosine monophosphate (cAMP) accumulation was measured using a competitive immunoassay based on HTRF (Homogeneous Time-Resolved Fluorescence) technology (cAMP dynamic-2, Cis-Bio).
HEK293T stable cell line expressing double-tagged WT-hMC4R construct were collected and washed in cAMP buffer (1XD-PBS pH 7.4, 0.1% glucose). 40,000 cells/well were then dispensed in 96-well plates in cAMP buffer [1XD-PBS, 1% BSA, 0.1% Glucose, 0.75 mM 3-isobutyl-1methyl-xanthine (IBMX, Sigma)] and incubated either for antagonist competition assay: 1 hour at 37° C. with various concentrations of compound [0.01 nM-10 μM] followed by 30 min incubation at 37° C. with 4 nM of NDP-α-MSH (Sigma) or for agonist assay: 1 hour at 37° C. with various concentrations of compound [0.01 nM-10 μM]. 10,000 cells were transferred in 384-well plates, lysed and incubated with cAMP labeled with the dye d2 and anti-cAMP M-Antibody labeled with Cryptate following the manufacturer's protocol.
Reading of HTRF signal was performed on Artemis TR-FRET plate reader (Cosmo Bio).
All curve fitting was conducted using non-linear regression analyses from PRISM (version 4.0c, GraphPad Inc.) and the determination of Rmax and EC50 or IC50 parameters were obtained from sigmoidal dose-response phase (variable slope) equation.
A cDNA encoding a wild-type human MC4R with a 3 tandem copies of Hemaglutinine (HA) epitote sequence from UMR cDNA resource center was modified using known techniques in the art (e.g., PCR, cloning) to fused in frame at the C-terminal a venus-Yellow Fluorescent Protein (YFP) cDNA.
The resultant cDNA was then subcloned in eukaryotic expression vector, e.g. pcDNA 3.1(+) (Invitrogen).
The double tagged WT-hMC4R was transfected in HEK293T cells with lipofectamine (Invitrogen) following the manufacturer's instructions and permanently transfected clonal cell lines were selected by resistance to the neomycin analog G418.
HEK293T stable cell line expressing wild-type human melanocortin 4 receptor (WT-hMC4R) containing an N-terminal 3xHA epitope tag and an intracellular C-terminal venus-yellow fluorescent protein (v-YFP) were maintained at 37° C. in humidified air containing 5% CO2 in Dulbecoo's modified Eagle's medium (DMEM) supplemented with 10% fetal bovine serum (FBS), 100 U/ml penicillin/streptomycin (DMEM complete/10% FBS). Cells were generally at 70%-80% confluence on the day of assay.
On the technique in general: In TR-FRET formats the signal depends on donor and acceptor labels being close together.
As usually defined, the IC50 is the concentration that inhibits the measured activity by half. Lower therefore signals greater potency in that assay. For `CCOc1ccc(-c2nn3ccc(C(=O)N(CCC(C)C)CCC(C)C)cc3c2CCCN2CCCCC2)cc1` [Example 22], the IC50 lay within 500 to 1000 nM.
Then `CC(C)CCN(CCC(C)C)C(=O)c1ccn2nc(-c3cccc(-c4nnn[nH]4)c3)c(CCCN3CCCCC3)c2c1` [Example 94], with 500 to 1000 nM.
Then `CC(C)CCN(CCC(C)C)C(=O)c1ccn2nc(-c3ccccc3)c(CCCN3CCCCC3)c2c1` [Example 55], with 1000 to 5000 nM.
The value for `COc1ccc(-c2nn3ccc(C(=O)N(CCC(C)C)CCC(C)C)cc3c2C#CCN2CCCCC2)cc1` [Example 109] was 1000 to 5000 nM; that for `CC(C)CCN(CCC(C)C)C(=O)c1ccn2nc(-c3cccc(C(=O)O)c3)c(/C=C/CN3CCCCC3)c2c1` [Example 73] was 1000 to 5000 nM; that for `CC(=O)c1ccc(-c2nn3ccc(C(=O)N(CCC(C)C)CCC(C)C)cc3c2/C=C/CN2CCCCC2)cc1` [Example 42, (E)-2-(4-Acetylphenyl)-N,N-diisopentyl-3-(3-(piperidin-1-yl)prop-1-en-1-yl)pyrazolo[1,5-a]pyridine-5-carboxamide] was 500 to 1000 nM.
Turning to `CC(C)CCN(CCC(C)C)C(=O)c1ccn2nc(C(C)(C)C)c(/C=C/CN3CCCCC3)c2c1` [Example 128], the IC50 was in the range of 1000 to 5000 nM.
Then `CC(C)CCN(CCC(C)C)C(=O)c1ccn2nc(-c3cccc(C(C)O)c3)c(CCCN3CCCCC3)c2c1` (stereo not drawn) [Example 32], with 500 to 1000 nM; and `CC(C)CCN(CCC(C)C)C(=O)c1ccn2nc(C(=O)Nc3ccc(C(=O)N4CCOCC4)cc3)c(CCCN3CCCCC3)c2c1` [Example 133], with 5000 to 15000 nM; and `COc1cc(-c2nn3ccc(C(=O)N(CCC(C)C)CCC(C)C)cc3c2CCCN2CCCCC2)cc(OC)c1OC` [Example 67], with under 500 nM.
The compound `CC(C)CCN(CCC(C)C)C(=O)c1ccn2nc(-c3ccc(-c4nnn[nH]4)cc3)c(CCCN3CCCCC3)c2c1` [Example 98] gave an IC50 of 1000 to 5000 nM.
The value for `COc1ccc(-c2nn3ccc(C(=O)N(CCC(C)C)CCC(C)C)cc3c2/C=C/CN2CCCOCC2)cc1` [Example 159] was 500 to 1000 nM.
Regarding `COC(=O)c1cccc(-c2nn3ccc(C(=O)N(CCC(C)C)CCC(C)C)cc3c2/C=C/CN2CCCCC2)c1` [Example 30], the concentration for half-maximal inhibition (IC50) is under 500 nM.
Regarding `COc1ccc(-c2nn3ccc(C(=O)N(CCC(C)C)CCC(C)C)cc3c2CCCN2CCCCC2)cn1` [Example 164, N,N-diisopentyl-2-(6-methoxypyridin-3-yl)-3-(3-(piperidin-1-yl)propyl)pyrazolo[1,5-a]pyridine-5-carboxamide], the IC50 is under 500 nM.
Then `CCCCN(CCCC)C(=O)c1ccn2nc(-c3ccc(C(C)(C)C)cc3)c(CCCN3CCCC3)c2c1` [Example 9], with 5000 to 15000 nM; and `COc1cccc(-c2nn3ccc(C(=O)N(CCC(C)C)CCC(C)C)cc3c2/C=C/CN2CCCCC2)c1` [Example 13], with 500 to 1000 nM.
Then `CCCCCN(CCCCC)C(=O)c1ccn2nc(-c3ccccc3)c(/C=C/CN3CCCCC3)c2c1` [Example 59], with 1000 to 5000 nM; and `CCOc1ccc(-c2nn3ccc(C(=O)N(CCC(C)C)CCC(C)C)cc3c2/C=C/CN2CCC(F)(F)CC2)cc1` [Example 79], with 5000 to 15000 nM; and `COc1cc(-c2nn3ccc(C(=O)N(CCC(C)C)CCC(C)C)cc3c2/C=C/CN2CCCCC2)cc(OC)c1OC` [Example 70], with under 500 nM.
Then `COc1ccc(-c2nn3ccc(C(=O)N(CCC(C)C)CCC(C)C)cc3c2CCCN2CCCC(F)C2)cc1` (stereo not drawn) [Example 161], with 1000 to 5000 nM; and `CCCCN(CCCC)C(=O)c1ccn2nc(-c3cc(OC)c(OC)c(OC)c3)c(CCCN3CCCCC3)c2c1` [Example 66], with 500 to 1000 nM; and `CCN(CC)CCCc1c(-c2ccc(OC)cc2)nn2ccc(C(=O)N(CCC(C)C)CCC(C)C)nc12` [Example 105], with 5000 to 15000 nM.
On to `CC(C)CCN(CCC(C)C)C(=O)c1ccn2nc(-c3ccc(C(C)(C)C)cc3)c(CCCN3CCCCC3)c2c1` [Example 4], for which the IC50 was in the range of 1000 to 5000 nM.
The value for `COc1ccc(-c2nn3ccc(C(=O)N(CCC(C)C)CCC(C)C)cc3c2/C=C/CN2CCOCC2)cc1` [Example 123] was 1000 to 5000 nM.
